One data set deals with T1, PPARγ (Homo sapiens, UniProt P37231).
T1 sequence (P37231 238-505 limits assumed): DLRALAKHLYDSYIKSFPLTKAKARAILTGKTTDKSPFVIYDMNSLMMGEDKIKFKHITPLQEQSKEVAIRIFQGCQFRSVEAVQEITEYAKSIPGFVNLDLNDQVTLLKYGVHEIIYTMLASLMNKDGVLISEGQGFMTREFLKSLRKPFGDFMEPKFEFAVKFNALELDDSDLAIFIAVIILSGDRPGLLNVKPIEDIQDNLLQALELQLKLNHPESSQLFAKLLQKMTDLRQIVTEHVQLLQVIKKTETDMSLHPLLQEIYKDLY
Kind of data set: Human PPARγ luciferase reporter assay. The class given is cell-based. To be noted: reporter cells, 24 hours. The protocol: This assay was performed using nonhuman mammalian cells engineered to provide a PPARγ-responsive luciferase reporter gene and constitutive, high levels of PPARγ (Indigo Biosciences catalog number IB00101). Cells were incubated with compounds for 24 hours, and then luciferase activity was measured using a luminometer. Agonist activity was reported as fold activation over a vehicle control. A positive control agonist, rosiglitazone, was included in each batch run to verify cell integrity.
(Reporter assays use an easily measured gene product as a stand-in for the process of interest.)

For the next data set, the system named is HepG2 cells. The data set can be described thus: Mitochondrial toxicity assay (JC-1 mitochondrial membrane potential). The format is cell-based, human. Here is the method: HepG2 cells were counted via hemocytometer and diluted into equal volumes of serum-free Opti-MEM (Life Technologies) and JC-1 Staining Solution (Sigma catalog number CS0390) at 300,000 cells/mL in the presence of 2.5 μg/mL JC-1. Cells were incubated at 37 °C and 5 % CO2 for 20 minutes, rinsed once with Hank's Balanced Salt Solution, and resuspended to the same concentration in serum-free Opti-MEM. Cells were then seeded into 96-well black-sided clear-bottom tissue culture plates at 30,000 cells/100 μL/well. Three replicates per experimental condition group were used. Compound was added with the final dimethyl sulfoxide (DMSO) concentration at 0.5 %. After 2 hours at 37 °C and 5 % CO2, medium was aspirated and plates were read on a Gemini EM spectrofluorometer (Molecular Devices). Fluorescence of JC-1 monomers was monitored by excitation at 490 nm and emission at 530 nm (green) and of aggregates by excitation at 525 nm and emission at 590 nm (red). The ratio of J-aggregates to monomers was calculated, with a lower ratio indicating increased cell toxicity. The percent change in mitochondrial membrane potential (Ψm) was calculated as follows: […]

The conditions of data set [1]: cited from earlier work.
The next data set concerns the target T2, GLUT9 (SLC2A9v2/GLUT9ΔN) (Homo sapiens, UniProt Q9NRM0).
T2 construct: expressed in transfected cells
T2 sequence (Q9NRM0 1-511 isoform Q9NRM0-2): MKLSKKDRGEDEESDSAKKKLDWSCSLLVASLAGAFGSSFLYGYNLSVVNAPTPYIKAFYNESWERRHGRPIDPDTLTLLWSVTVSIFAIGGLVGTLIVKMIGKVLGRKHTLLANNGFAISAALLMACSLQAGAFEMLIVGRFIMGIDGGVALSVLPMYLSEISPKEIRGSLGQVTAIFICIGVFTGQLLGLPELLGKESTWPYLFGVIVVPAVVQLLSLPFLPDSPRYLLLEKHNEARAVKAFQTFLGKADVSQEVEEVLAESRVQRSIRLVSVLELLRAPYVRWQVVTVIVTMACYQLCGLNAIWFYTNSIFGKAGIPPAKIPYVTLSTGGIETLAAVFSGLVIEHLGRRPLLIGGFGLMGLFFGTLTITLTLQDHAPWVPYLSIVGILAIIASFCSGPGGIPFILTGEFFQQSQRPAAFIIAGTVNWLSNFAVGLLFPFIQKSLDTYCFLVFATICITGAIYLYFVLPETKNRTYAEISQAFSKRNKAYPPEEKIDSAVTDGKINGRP
Kind of data set: GLUT9 urate transport in cRNA-injected oocytes. The format is cell-based. The protocol:
For GLUT9, SLC2A9v2/GLUT9ΔN in pCMV6/neo was linearized with XmaI and NotI and cRNA transcribed using the mMessage mMachine T7 kit (Ambion). Oocytes were injected with either water or 25 ng cRNA and incubated for 3 to 5 days in ND96 buffer. For each point, 10 oocytes were incubated with 100 μM ^14C-uric acid in ND96 buffer with and without test compounds at room temperature for 60 minutes. The oocytes were then washed three to four times in ice-cold ND96 buffer and lysed prior to scintillation counting.

In another data set the target is T3, OAT4 (Homo sapiens, UniProt Q9NSA0).
T3 sequence (Q9NSA0 with tags, fused parts or gaps): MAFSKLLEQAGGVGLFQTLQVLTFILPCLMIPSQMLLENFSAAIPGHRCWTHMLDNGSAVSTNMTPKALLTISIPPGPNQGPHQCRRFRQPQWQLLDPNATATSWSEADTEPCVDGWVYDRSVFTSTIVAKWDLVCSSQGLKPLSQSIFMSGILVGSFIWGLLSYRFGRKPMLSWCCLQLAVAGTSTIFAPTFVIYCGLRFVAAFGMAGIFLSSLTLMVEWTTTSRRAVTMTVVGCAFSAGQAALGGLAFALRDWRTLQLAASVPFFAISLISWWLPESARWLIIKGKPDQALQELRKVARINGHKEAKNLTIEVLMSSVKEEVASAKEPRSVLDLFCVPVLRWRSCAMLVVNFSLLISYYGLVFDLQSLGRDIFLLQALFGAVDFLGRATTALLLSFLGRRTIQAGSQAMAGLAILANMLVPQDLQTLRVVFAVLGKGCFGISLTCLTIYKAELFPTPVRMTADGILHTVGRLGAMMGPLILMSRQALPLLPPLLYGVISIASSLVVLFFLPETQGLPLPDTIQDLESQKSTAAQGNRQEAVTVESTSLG
The data set can be described thus: OAT4 urate transport assay in stably transfected HEK293 cells. The format is cell-based. To be noted: 100 μM 14C-urate, 10 min, OAT4-551G cells; mean ± SEM, three experiments; read-out: Potency (IC50) against OAT4.

“Also recorded” adds a separate entry of the source.

Description for OAT4: Stably transfected HEK293-OAT4-551G cells were used for OAT4 transport activity assays, which were grown for several weeks in media (DMEM with 10 % fetal bovine serum and 1 mM sodium pyruvate) containing 500 μg/mL geneticin sulfate. An isolated clone with high OAT4 activity was selected for activity assays. One day prior to the assay, cells were plated at 200,000 cells/well into each well of white, clear bottom poly-D-lysine-coated assay plates (BD Biosciences).
The cells were assayed on the following day. […] The free urate was removed by aspiration and the cells rinsed three times in 150 μL wash buffer. The cells were then subjected to liquid scintillation counting to measure transported urate. […] Each point represents the mean and standard error of the mean (SEM) from triplicates.

Turning to `CCCN(CCC)S(=O)(=O)c1ccc(C(=O)O)cc1` [Probenecid], the PPARγ activation entry at PPARγ (at 300 μM) was “slight PPARγ activation”; on PPARγ (up to 100 μM), “no activation”. In the data set with HepG2 cells (HepG2, up to 300 μM), the Mitochondrial toxicity entry was “no mitochondrial toxicity”.
As for `CCc1oc2ccccc2c1C(=O)c1cc(Br)c(O)c(Br)c1` [Benzbromarone], in data set [1], the Estimated plasma concentration is 0.016 to 0.16 µM and the Urinary excretion was 6%. Moreover, at GLUT9 (SLC2A9v2/GLUT9ΔN) (100 μM 14C-uric acid, 60 min, read-out: Potency against GLUT9), the IC50 was roughly 100 µM. Besides, on GLUT9 (SLC2A9v2/GLUT9ΔN) (compound at up to 100 μM), the “Effect on GLUT9 urate transport” value is recorded as “only weak activity; also recorded: inhibited”. Besides, at OAT4, the IC50 came out at 3.19 ± 1.04 µM. Also, the PPARγ activation result on PPARγ (at 30 μM) is recorded as “strongly activated”. The “Lowest concentration reducing mitochondrial membrane potential” value in the data set on HepG2 cells (HepG2, 2 hours) came out at 0.4 µM. Also, the EC50 in the data set on HepG2 cells (Homo sapiens, HepG2, 2 hours, read-out: Half maximal effective concentration for reduction of mitochondrial membrane potential) turned out to be 1.36 µM.

Values taken from article PMC5048659 (Arthritis Research & Therapy, 2016).
